# Patent publication US20250084128A1, “ANTIVIRAL […]-STAPLED SARS-CoV-2 PEPTIDE-C[…] USES THEREOF” (priority 2021, published 2025)
# Test system: pseudotyped SARS-CoV-2 virus
# Type: cell-based
row,Substance,differential antiviral activity
1,DISGINASVVNIQK8IDRLNEXAKNLNESLIDLQELGK [SEQ ID NO: 11],little to no activity
2,DISGINASVVNIQKEI8RLNEVAXNLNESLIDLQELGK [SEQ ID NO: 13],moderate activity
3,DISGINASVVNIQKEID8LNEVAKXLNESLIDLQELGK [SEQ ID NO: 14],little to no activity
4,DISGINASVVNIQKEIDR8NEVAKNXNESLIDLQELGK [SEQ ID NO: 15],little to no activity
5,DISGINASVVNIQKEIDRL8EVAKNLXESLIDLQELGK [SEQ ID NO: 16],moderate activity
